In general, MBC refers to the smallest concentration meeting the test's criterion for killing. A higher MBC goes with weaker bactericidal potency.

Where no end group is shown, it is not given here. A value given as a limit tells only on which side of the number the result lay.

The results in this text go back to patent US7569542B2, “Anti-microbial targeting chimeric pharmaceutical” (priority 1999, dated 2009).

The subject of one data set is Myxococcus. In kind it is cell-based. How it is done: (§1) To test the antimicrobial activity of the fusion peptides against target bacteria, a panel of bacteria, both gram positive and gram negative, were tested.
A further data set has as its system S. mitis. The class given is cell-based. As to the method: as §1
Another data set relates to P. tabaci. In kind it is cell-based. As to the method:
as §1

The test system of a further data set is P. aeruginosa Pak. The class given is cell-based. As to conditions: for MBC: Pak. How it is done:
as §1

The subject of data set [1] is S. sanguis. In kind it is cell-based. How it is done:
as §1

For another data set, the system named is S. oralis. In kind it is cell-based. How it is done:
as §1

The next data set relates to S. mutans 159. In kind it is cell-based. As to the method:
as §1

A further data set concerns E. coli Mg1665 (smooth). In kind it is cell-based. How it is done: as §1
For the next data set, the system named is E. coli W3110 ampR. In kind it is cell-based. How it is done:
as §1

In data set [2] the test system is P. mendocina. The class given is cell-based. How it is done:
as §1

The next data set relates to S. aureus. The class given is cell-based. How it is done: as §1
A further data set concerns Y. entercolitica. In kind it is cell-based. How it is done:
as §1

A further data set concerns E. coli 3132 (wt). In kind it is cell-based. As to the method: as §1
The subject of data set [3] is E. coli W3110. The class given is cell-based. How it is done:
as §1

For the next data set, the system named is S. mutans 140. In kind it is cell-based. As to the method: as §1
A further data set has as its system B. cepacia. In kind it is cell-based. As to the method: as §1
For a further data set, the system named is Salmonella Lt2 (ATCC). In kind it is cell-based. As to the method: as §1
The subject of another data set is E. coli Aw405. In kind it is cell-based. How it is done:
as §1

The subject of a further data set is P. aeruginosa Pak (ATCC). In kind it is cell-based. As to the method:
as §1

For another data set, the system named is P. fluorescens 1089. The class given is cell-based. How it is done:
as §1

For a further data set, the system named is P. fluorescens 1088. The class given is cell-based. How it is done:
as §1

The subject of a further data set is Klebsiella Kay2026. The class given is cell-based. As to the method:
as §1

In data set [4] the test system is P. mendocina. As to the kind of experiment: Selective killing in mixed culture of P. mendocina and E. coli W3110. The conditions noted are these: 6 μM peptide, 4 min; mixed with E. coli W3110; preliminary results. The class given is cell-based. As to the method:
(§2) To test if G10CatC can selectively kill its target bacteria in a mixed culture, 10^5 of P. mendocina and E. coli W3110 cells were mixed and treated with 6 μM G10 or G10CatC peptides. Samples were taken at 30 sec. 1 min, 2 min, and 4 min, and survivors were counted by plating assays.

Data set [5] has as its system E. coli W3110. The data set is described as above. As to conditions: 6 μM peptide, 4 min; mixed with P. mendocina; preliminary results. The class given is cell-based. How it is done: as §2
The subject of data set [6] is P. mendocina. The class given is cell-based, Pseudomonas mendocina. As to the method:
(§3) Briefly, varying concentrations of peptide G10, G10CatC, or G10CatN was added to 10^5 of target bacterial cells and survivors were counted by plating samples after 0.5, 1, 2 and 4 minutes of peptide exposure.

The subject of another data set is S. mutans cells. As to the kind of experiment: Selective killing in mixed culture of PAK and S. mutans cells. In kind it is cell-based. The conditions noted are these: 9 μM peptide, within 4 min; mixed with PAK cells. An excerpt:
(§4) In contrast, G10CatC killed over 90% of PAK cells, but none of S. mutans cells.

Data set [7] relates to PAK cells. In kind it is cell-based, Pseudomonas aeruginosa PAK. The conditions noted are these: 18 μM peptide, up to 4 min. How it is done: as §3
Data set [8] concerns PAK cells. Put plainly: Selective killing in mixed culture of PAK and S. mutans cells. The class given is cell-based, P. aeruginosa. The conditions noted are these: 9 μM peptide, within 4 min; mixed with S. mutans.
Source text: as §4

Data set [9] deals with P. mendocina. As to the kind of experiment: Long-term time-kill experiment (up to 2 h). The class given is cell-based, Pseudomonas mendocina. As to conditions: for time to kill all input P. mendocina cells: 3 μM peptide; for surviving P. mendocina cells: 9 μM peptide. As to the method: Similar to the short-term kinetic studies described above, treatment with 3 μM G10CatC killed all input P. mendocina cells within 30 min, in contrast, it took 2 h for G10 alone to kill all input P. mendocina cells at the same concentration.

Another data set concerns Host cells. Put plainly: Minimal Inhibitory Concentrations. In kind it is cell-based.
Data set [10] has as its system S. sanguis.
For data set [11], the system named is PAK cells. As to the kind of experiment: Competition-binding experiment, labeled vs unlabeled Cat-1, fluorescent microscopy. More on the design: species or system P. aeruginosa. How it is done:
To further confirm the specificity of Cat-1 binding to Pak cells, competition-binding experiments were conducted. Labeled Cat-1 was mixed with increasing concentrations of unlabeled Cat-1, and fluorescent labeling of the target bacterial cells was measured by fluorescent microscopy.

Data set [12] in a line: Antimicrobial activity of targeting peptide alone. In kind it is cell-based.

With “KNLRRIIRKGIHIIKKYG [G10, KNLRRIIRKGIHIIKKYG, reference compound]”, the minimum bactericidal concentration (MBC) was above 11.25 µM in the data set with Myxococcus; above 58 µM with S. mitis; 5.625 µM against P. tabaci; 54.5 µM in the data set on P. aeruginosa Pak; 3.5 to 7.03 µM in the data set on S. sanguis [1]; above 58 µM in the data set with S. oralis. In addition, the minimum bactericidal concentration (MBC) against S. mutans 159 was 3.5 to 7.03 µM; against E. coli Mg1665 (smooth) it was 2.8 µM; with E. coli W3110 ampR it was 2.8 µM; in the data set on P. mendocina [2], 1.05 µM; in the data set on S. aureus, above 22.5 µM; against Y. entercolitica it was 22.5 µM. Besides, the MBC is 11.25 µM in the data set on E. coli 3132 (wt); 1.4 µM against E. coli W3110 [3]; 3.5 to 7.03 µM against S. mutans 140; 23 µM with B. cepacia; above 22.5 µM with Salmonella Lt2 (ATCC); 2.8 µM against E. coli Aw405. Further, the MBC was 42.18 µM against P. aeruginosa Pak (ATCC), above 11.25 µM with P. fluorescens 1089, 1.4 µM against P. fluorescens 1088 and above 11.25 µM against Klebsiella Kay2026. Further, the “live P. mendocina cells in mixed culture” value in the data set on P. mendocina [4] is “did not affect the survival”. Moreover, the “live W3110 cells in mixed culture” value in the data set with E. coli W3110 [5] is given as “did not affect the survival”. The killing activity result in the data set on P. mendocina [6] (3 μM peptide, within 4 min) is reported as “did not display any killing activity”; in the data set with PAK cells [7], “did not show any killing activity”. In addition, the “killing of S. mutans cells in mixed culture” value in the data set with S. mutans cells is “did not kill any of the cells”. Further, the “killing of PAK cells in mixed culture” value in the data set on PAK cells [8] is “did not kill any of the cells”. In addition, the “time to kill all input P. mendocina cells” value in the data set on P. mendocina [9] is listed as 2 h. Also, the “surviving P. mendocina cells” value with P. mendocina [9] (after 30 minutes of exposure) is reported as “a significant number of cells were recovered”.
Regarding “KKHRKHRKHRKHGGSGGSKNLRRIIRKGIHIIKKYG [G10CatC]”, the minimum bactericidal concentration (MBC) in the data set with Myxococcus is above 11.6 µM; against S. mitis, above 58 µM; against P. tabaci it was 2.175 µM; in the data set with P. aeruginosa Pak, 1.4 to 2.9 µM; against S. sanguis [1], 3.6 to 7.25 µM; against S. oralis, above 58 µM. Besides, the MBC is 3.6 to 7.25 µM against S. mutans 159; 2.9 µM with E. coli Mg1665 (smooth); 2.9 µM in the data set with E. coli W3110 ampR; 1.4 to 2.4 µM against P. mendocina [2]; above 23.2 µM in the data set on S. aureus; 23.2 µM against Y. entercolitica. The MBC in the data set on E. coli 3132 (wt) was 5.8 µM; with E. coli W3110 [3], 2.81 µM; against S. mutans 140 it was 3.6 to 7.25 µM; in the data set with B. cepacia, 13 µM; against Salmonella Lt2 (ATCC), 11.6 to 23.2 µM; against E. coli Aw405, 11.6 µM. Besides, the minimal bactericidal concentration (MBC) is 4.9 µM against P. aeruginosa Pak (ATCC), 2.9 µM in the data set on P. fluorescens 1089, 1.45 µM in the data set on P. fluorescens 1088 and 11.6 to 23.2 µM with Klebsiella Kay2026. Besides, in the data set with P. aeruginosa Pak (against Pak, from MBC), the “enhancement of killing activity relative to G10” value is listed as 38 fold. The “MBC relative to G10 alone (higher)” value in the data set on P. mendocina [2] (P. mendocina) worked out at 2 ×. Further, the “decrease of killing activity relative to G10” value with P. mendocina [2] (against P. mendocina, from MBC) came out at 2 fold. In addition, the “live P. mendocina cells in mixed culture” value in the data set on P. mendocina [4] is on record as “no live P. mendocina cells could be detected”. For the same molecule, the “live W3110 cells in mixed culture” value with E. coli W3110 [5] is reported as “remained nearly unchanged”. The “time to reduce live P. mendocina cells to below detectable levels” value with P. mendocina [6] (3 μM peptide) was at most 4 min. Moreover, in the data set with S. mutans cells, the “killing of S. mutans cells in mixed culture” value is given as “none”. In addition, the “time to kill all input P. mendocina cells” value with P. mendocina [9] was at most 0.5 h. Also, in the data set on P. mendocina [9] (after 2 minutes of treatment), the “surviving P. mendocina cells” value is reported as “no surviving P. mendocina cells were recovered”.
For `C[C@H](NC(=O)[C@H](Cc1cnc[nH]1)NC(=O)[C@H](CO)NC(=O)[C@@H](N)CC(=O)O)C(=O)N[C@@H](CCCCN)C(=O)N[C@@H](CCCNC(=N)N)C(=O)N[C@@H](Cc1cnc[nH]1)C(=O)N[C@@H](Cc1cnc[nH]1)C(=O)NCC(=O)N[C@@H](Cc1ccc(O)cc1)C(=O)N[C@@H](CCCCN)C(=O)N[C@@H](CCCNC(=N)N)C(=O)N[C@@H](CCCCN)C(=O)N[C@@H](Cc1ccccc1)C(=O)N[C@@H](Cc1cnc[nH]1)C(=O)N[C@@H](CCC(=O)O)C(=O)N[C@@H](CCCCN)C(=O)N[C@@H](Cc1cnc[nH]1)C(=O)N[C@@H](Cc1cnc[nH]1)C(=O)N[C@@H](CO)C(=O)N[C@@H](Cc1cnc[nH]1)C(=O)N[C@@H](CCCNC(=N)N)C(=O)NCC(=O)N[C@@H](Cc1ccc(O)cc1)C(=O)O` [Histatin 5, DSHAKRHHGY KRKFHEKHHS HRGY], the results for the “Minimal Inhibitory Concentrations” value with Host cells, in the data set with S. sanguis [10] and in the data set on S. mutans were above 50 µM, around 10 µM and around 10 µM, respectively.
“KNLRRIIRKGIHIIKKYGGGSGGSKKHRKHRKHRKH [G10CatN]”: the MBC in the data set with Myxococcus is above 11.6 µM; against P. tabaci it was above 11.6 µM; in the data set with P. aeruginosa Pak it was 45 µM; against E. coli Mg1665 (smooth), above 23.2 µM; against P. mendocina [2] it was 2.8 µM; with S. aureus, above 23.2 µM. Besides, the MBC against Y. entercolitica is above 23.2 µM; against E. coli 3132 (wt), 11.6 µM; against E. coli W3110 [3], above 11.6 µM; in the data set with B. cepacia, 11.6 µM; in the data set on Salmonella Lt2 (ATCC) it was above 23.2 µM; with E. coli Aw405, above 23.2 µM. The MBC against P. aeruginosa Pak (ATCC) is 17.4 µM; against P. fluorescens 1089, 11.6 µM; with P. fluorescens 1088 it was 1.45 µM; in the data set on Klebsiella Kay2026, above 11.6 µM. Moreover, the killing entry with P. mendocina [6] (any concentration tested, through 4 minutes) is “no killing”.
For “KKHRKHRKHRKH (Design peptide) [Cat-1, 61]”, the “fluorescent signal of labeled Cat-1 on PAK cells” value is “completely abolished” in the data set with PAK cells [11] (10× molar excess unlabeled Cat-1) and “reduced” in the data set on PAK cells [11] (equal molar concentration of unlabeled Cat-1 added). Moreover, in [12], the antimicrobial activity entry was “does not have any antimicrobial activity”.
